Source: patent US20040171019A1, “PIN1 peptidyl-prolyl isomerase polypeptides, their crystal structures, and use thereof for drug design” (Agouron Pharmaceuticals, Inc., priority 2002, published 2004)
Blank lines part the entries; values can stand above or below the molecule they belong to. Numbered stars: 1 amine (or outer) side, 2 acyl side, 3 side chain; on linkers, the order of the positions; unused ones are H or OH. Square brackets hold non-standard residues; d marks the D form. Peptide text beside a SMILES is read from it. * marks the point of attachment. pS = N[C@@H](COP(=O)(O)O)C(=O)O; pNA = O=[N+]([O-])c1ccc(N*)cc1; Suc = O=C(CCC(=O)[*:2])[*:1]

Legend:
[1] = system: Suc-AEPF-pNA peptide substrate; assay: Peptidyl-prolyl isomerase activity of PIN1 polypeptides without inhibitor; type: biochemical; details: 0.033 nM enzyme, 100 μM Suc-AEPF-pNA
Description: PIN1 is a phosphorylation dependent peptidyl-prolyl isomerase. Peptidyl-prolyl ismomerase activity for the peptides of the invention can be measured using a spectrophotometric assay based on the coupled chymotrypsin catalyzed, cis-trans conformation dependent cleavage of a para-nitroanaline-containing peptide substrate. This rotamase assay is described by Kofron et al. (Biochemistry 30, […] (1991)) and its application to PIN1 isomerase activity is described by Yaffe et al. (Science 278, 1957-1960 (1997)). Cleavage of the isomerized peptide releases para-nitroanaline, which can be monitored by an increase in absorbance at 390 nm. The PIN1 peptide substrate, succinyl-alanine-[…]-proline-phenylalanine-paranitroaniline (Suc-AEPF-pNA) (Bachem California, Inc., Torrence, Calif.) is kept in a predominantly cis conformation with an anhydrous TFE (trifluorethanol)/LiCl (lithium chloride) solvent mixture. […]
Peptidyl-prolyl isomerase reactions were carried out in 25 mM MOPS [3-(N-Morpholino)propanesufonic acid], pH 7.5, 0.5 mM TCEP [Tris(2-carboxyethyl)phosphine hydrochloride], 2% DMSO, 5 μl of a 25 mg/ml solution of Subtilisin Carlsberg Protease (Sigma), […], and 100 μM Suc-AEPF-pNA peptide substrate. […] The absorbance at 390 nm was monitored continuously until all substrate had been converted to the cleaved product. […]

[2] = target: T1, His-tagged construct of the K77Q/K82Q PPIase domain (Homo sapiens, UniProt Q13526, K77Q/K82Q); assay: Isothermal titration calorimetry; type: binding
T1 construct: made in house; host or cells: E. coli BL21(DE3)
Description: The working volume of the ITC cell was 1.414 mL. Both solutions contained 25 mM MOPS pH 7.5, 0.5 mM TCEP and 2.0% DMSO (vol./vol.). The PPIase polypeptide solution was prepared by exhaustively dialyzing a stock protein solution against several changes of dialysis buffer (25 mM MOPS pH 7.5, 0.5 mM TCEP) at 4.0° C.
After dialysis the protein was centrifuged to remove any particulate matter. The protein concentration was then determined by absorbance using an extinction coefficient that had been calculated based on the tryptophan and tyrosine content of the protein. The dialysed protein was then diluted with the dialysate and 2.0% (volume to volume) DMSO was added to yield a final concentration of 200 μM protein. […] An aliquot of the stock solution was diluted in DMSO and then an appropriate volume of dialysate was added. The final DMSO concentration was 2.0% (volume to volume) and the final compound concentration was 10 μM.
Appropriate control titrations (buffer into buffer, buffer into compound, and protein into buffer) were performed to determine the heats of dilution. Prior to fitting for the binding parameters, the observed heats of binding were corrected for heat of dilution of the protein. […] The data were fit using the ORIGIN® software package (MicroCal) provided with the ITC (FIG. 6). […] The One Set of Sites model with ligand in the cell was selected.

[3] = target: human PIN1 (Homo sapiens, UniProt Q13526); details: Hennig et al., Biochemistry 37: 5953-5960 (1998); cited from earlier work
[4] = target: T2, PPIase domain of PIN1 (Homo sapiens, UniProt Q13526); assay: Fluorescence polarization competition assay with fluorescein-tagged Pintide; type: binding; details: free Pintide as inhibitor control
T2 construct: made in house; host or cells: E. coli BL21(DE3)
Description: This assay is based on fluorescence polarization. In fluorescence polarization detection, monochromatic light passes through a polarized filter and excites molecules in the sample well. Only those molecules that are oriented properly in the polarized plane absorb light, become excited, and subsequently emit light. The emitted light is detected after passing through polarizing filters that are oriented parallel and perpendicular to the plane of excitation. Since small molecules rotate more quickly than large molecules (e.g. in the form of a bound complex), the parallel (S) and perpendicular (P) measurements are closer and the difference is lower. Fluorescence polarization is measured in mP (milliP) which is defined using the following equation: […]
For the PIN1 assay, library compounds compete with fluorescein-tagged Pintide to bind the PPIase domain of PIN1. After a short incubation, samples are assayed using fluorescence polarization. The excitation and emission of fluorescein occur at 485 nm and 530 nm, repectively. […]
Experiments were performed in either 96-well plates or 384-well black flat bottom polystyrene non-binding surface (NBS) plates (Costar). […] Excitation was measured at 485 nm and emission was measured at 530 nm. Readings were taken in a Florescence Polarization reader (Molecular Devices Analyst). […]

[5] = target: T3, mutant PPIase K77Q/K82Q (Homo sapiens, UniProt Q13526, K77Q/K82Q); assay: PIN1 peptidyl-prolyl isomerase assay (protease-coupled, Suc-AEPF-pNA); type: biochemical; details: 15° C., read-out: Km for this substrate
T3 construct: 6xHis (N, cleaved yes); made in house; host or cells: E. coli BL21(DE3)
Description: PIN1 is a phosphorylation dependent peptidyl-prolyl isomerase. […] Cleavage of the isomerized peptide releases para-nitroanaline, which can be monitored by an increase in absorbance at 390 nm. […] To minimize the spontaneous isomerization of the peptide substrate, reactions are performed at 15° C.
The rate constant k is linearly proportional to the concentration of active enzyme present in the assay mixture once the rate constant for the spontaneous isomerization is subtracted.

[6] = ITC, 15.0° C., duplicate, ± standard deviation
[7] = best fit of corrected binding data, FIG. 6

- rate [1]: 0.2
Molecule: wild-type PIN1: wild type human PIN1, a phosphorylation dependent peptidyl-prolyl isomerase

- enthalpy of binding [2, 6]: −7.3 (±0.1) kcal/mol
- stoichiometry [2, 6]: 0.854 (±0.003)
- C value [2, 7]: 142
- ka [2, 7]: 1.42e+07 M⁻¹
Molecule: O=C(N[C@@H](COP(=O)(O)O)Cc1ccccc1)c1cc2ccccc2s1 [Compound I, Phosphoric acid mono-{(R)-2-[(1-benzo[b]thiophen-2-yl-methanoyl)-amino]-3-phenyl-propyl} ester]

Molecule: O=C1C=CC(=O)c2c(O)cccc21 [juglone, 5-hydroxy-1,4-naphthoquinone]
- inhibition of parvulins, including human PIN1 [3]: selectively inhibits

- IC50 [4]: 7 to 10 µM
Molecule: CC(C)C[C@H](NC(=O)[C@H](Cc1ccccc1)NC(=O)[C@@H]1CCCN1C(=O)[C@H](COP(=O)(O)O)NC(=O)[C@H](Cc1ccc(O)cc1)NC(=O)[C@H](Cc1ccccc1)NC(=O)[C@@H](N)Cc1c[nH]c2ccccc12)C(=O)N[C@@H](CCC(=O)O)C(=O)O [Pintide] (H-WFY[pS]PFLE-OH)

- Km [5]: > 100 µM
Molecule: C[C@H](NC(=O)CCC(=O)O)C(=O)N[C@@H](CCC(=O)O)C(=O)N1CCC[C@H]1C(=O)N[C@@H](Cc1ccccc1)C(=O)Nc1ccc([N+](=O)[O-])cc1 [Suc-AEPF-pNA] (Suc-AEPF-pNA)
